Experiment [1] deals with T1, S1P1 (Homo sapiens, UniProt P21453).
T1 construct: expressed in transfected cells; host or cells: CHO cells (S1P1/CHO), membranes
The experiment is described as follows: Receptor [35S] GTPγS binding assay (S1P1 GTPγS). It counts as biochemical. To be noted: membranes from S1P1/CHO cells; for S1P1 GTPgS (Ymax): maximal response; for EC50: phosphorylated compounds, read-out: S1P1 GTPgS (EC50). As to the method:
(§1) The compounds of Formula (I), Formula (II), Formula (III), and Formula (IV), and salts thereof in which R2 is —OH, engage their biological targets (e.g. S1P1) after bioactivation through phosphorylation of the alcohol to provide an active phosphate ester compound of Formula (I), Formula (II), Formula (III), and Formula (IV), or salts thereof, in which R2 is —OP(O)(OH)2. In vitro characterization of biological activity of the examples was conducted on synthetically prepared samples of the phosphorylated compounds.
(§2) Receptor [^35S] GTPyS Binding Assays: (S1P1 GTPyS/S1P3 GTPyS)
(§3) Compounds were loaded in a 384 Falcon v-bottom plate (0.5 μl/well in a 11 point, 3-fold dilution). Membranes prepared from S1Pi/CHO cells or EDG3-Ga15-bla HEK293T cells (EDG3 equivalent S1P3) were added to the compound plate (40 μl/well, final protein 3 μg/well) with MULTIDROP®. [^35S] GTP (1250 Ci/mmol, Perkin Elmer) was diluted in assay buffer: 20 mM HEPES, pH7.5, 10 mM MgCl2, 150 mM NaCl, 1 mM EGTA (ethylene glycol tetraacetic acid), 1 mM DTT (Dithiothreitol), 10 μM GDP, 0.1% fatty acid free BSA, and 10 μg/ml Saponin to 0.4 nM. 40 μl of the [^35S] GTP solution was added to the compound plate with a final concentration of 0.2 nM. The reaction mixture was kept at room temperature for 45 min. At the end of incubation, all the mixtures in the compound plate were transferred to Millipore 384-well FB filter plates via the VELOCITY 11® Vprep liquid handler. The filter plate was washed with water 4 times by using the manifold Embla plate washer and dried at 60° C. for 45 min. MicroScint 20 scintillation fluid (30 μl) was added to each well for counting on the Packard TOPCOUNT®. ECso is defined as the agonist concentration that corresponds to 50% of the Ymax (maximal response) obtained for each individual compound tested.
(§4) A smaller value for GTPyS S1 P1 EC50 value indicated greater activity for the compound in the GTPyS S1P1 binding assay. A larger value for the GTPyS S1 P3 EC50 value indicated less activity in the GTPyS S1 P3 binding assay (Table A).

Experiment [2] deals with T2, S1P3 (Homo sapiens, UniProt Q99500).
T2 construct: expressed in transfected cells; host or cells: HEK293T cells (EDG3-Ga15-bla), membranes
T2 sequence (Q99500 whole entry): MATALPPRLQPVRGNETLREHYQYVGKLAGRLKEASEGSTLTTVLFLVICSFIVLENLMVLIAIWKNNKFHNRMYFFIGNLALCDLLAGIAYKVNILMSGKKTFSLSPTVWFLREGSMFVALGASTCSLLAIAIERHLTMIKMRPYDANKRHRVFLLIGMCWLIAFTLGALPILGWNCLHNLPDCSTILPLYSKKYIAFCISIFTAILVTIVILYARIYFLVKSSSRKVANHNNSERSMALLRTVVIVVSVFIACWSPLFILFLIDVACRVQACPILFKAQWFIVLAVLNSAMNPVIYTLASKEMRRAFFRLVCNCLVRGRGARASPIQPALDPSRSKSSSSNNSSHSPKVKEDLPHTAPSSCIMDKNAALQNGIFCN
Description: Receptor [35S] GTPγS binding assay (S1P3 GTPγS). It counts as biochemical. To be noted: membranes from EDG3-Ga15-bla HEK293T cells; read-out: S1P3 GTPgS (EC50). The protocol: as §1, §2, §3, §4

This is an account of results in patent US10633354B2, “Substituted tricyclic heterocyclic compounds” (BRISTOL-MYERS SQUIBB COMPANY, priority 2016, dated 2020).

T1 sequence (P21453 whole entry): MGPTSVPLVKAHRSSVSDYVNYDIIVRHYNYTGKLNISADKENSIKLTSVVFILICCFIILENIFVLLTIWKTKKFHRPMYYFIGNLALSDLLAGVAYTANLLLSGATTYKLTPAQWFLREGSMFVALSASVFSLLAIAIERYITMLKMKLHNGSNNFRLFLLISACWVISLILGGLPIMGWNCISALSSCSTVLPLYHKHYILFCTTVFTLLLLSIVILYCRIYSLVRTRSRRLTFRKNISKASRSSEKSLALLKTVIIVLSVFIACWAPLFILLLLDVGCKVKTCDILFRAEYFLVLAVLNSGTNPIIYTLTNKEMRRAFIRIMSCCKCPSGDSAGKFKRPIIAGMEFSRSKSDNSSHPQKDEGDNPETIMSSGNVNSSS

Regarding `CCCCOc1nc2c(s1)-c1ccc([C@H]3CC[C@](N)(COP(=O)(O)O)C3)cc1CC2` [Example 29], in experiment [1], the “S1P1 GTPgS (Ymax)” value worked out at 58%. Moreover, the 50% effective concentration (EC50) in experiment [1] was 30 nM; in experiment [2] it was over 3000 nM.
For `CCCc1nc2c(s1)-c1ccc([C@H]3CC[C@](N)(COP(=O)(O)O)C3)cc1CC2` [Example 28] the same measures were 79%, 19 nM and over 3000 nM.
On to `CCCCSc1nc2c(s1)-c1ccc([C@H]3CC[C@](N)(COP(=O)(O)O)C3)cc1CC2` [Example 31, ((1R,3S)-1-amino-3-(2-(butylthio)-4,5-dihydronaphtho[2,1-d]thiazol-7-yl)cyclopentyl)methyl dihydrogen phosphate], for which, in experiment [1], the “S1P1 GTPgS (Ymax)” value was 58% and the EC50 was 20 nM. The EC50 in experiment [2] was over 3000 nM.
Take `CCCCCCCc1nc2c(s1)-c1ccc([C@H]3CC[C@](N)(COP(=O)(O)O)C3)cc1CC2` [Example 27]: in experiment [1], the “S1P1 GTPgS (Ymax)” value was determined as 98% and the EC50 came to 10 nM. Moreover, the half-maximal effective concentration (EC50) in experiment [2] is over 3000 nM.
The like results for `CCCCNc1nc2c(s1)-c1ccc([C@H]3CC[C@](N)(COP(=O)(O)O)C3)cc1CC2` [Example 32, ((1R,3S)-1-amino-3-(2-(butylamino)-4,5-dihydronaphtho[2,1-d]thiazol-7-yl)cyclopentyl)methyl dihydrogen phosphate] were, in that order, 49%, 133 nM and over 3000 nM.
For `CCCCCCOc1nc2c(s1)-c1ccc([C@H]3CC[C@](N)(COP(=O)(O)O)C3)cc1CC2` [Example 30, ((1R,3S)-1-amino-3-(2-(hexyloxy)-4,5-dihydronaphtho[2,1-d]thiazol-7-yl)cyclopentyl) methyl dihydrogen phosphate] the same measures were 102%, 12 nM and over 3000 nM.
With `CCCCOCCOc1nc2c(s1)-c1ccc([C@H]3CC[C@](N)(COP(=O)(O)O)C3)cc1CC2` [Example 26, ((1R,3S)-1-amino-3-(2-(2-butoxyethoxy)-4,5-dihydronaphtho[2,1-d]thiazol-7-yl)cyclopentyl)methyl Dihydrogen Phosphate], the “S1P1 GTPgS (Ymax)” value in experiment [1] came out at 107%. In addition, the EC50 in experiment [1] was determined as 1 nM; in experiment [2], 190 nM.
